According to ChEMBL document CHEMBL1150506, “S-nitrosation of proteins by N-methyl-N-nitrosoanilines” (Bioorg Med Chem Lett, 1996):

How the values were obtained:
[1] = (§1) Pseudo-first order rate constant for inhibition of thiol-dependent papain enzyme
Papain = target: T1, Papain (Carica papaya, UniProt P00784); assay: as §1
T1 sequence (P00784 whole entry): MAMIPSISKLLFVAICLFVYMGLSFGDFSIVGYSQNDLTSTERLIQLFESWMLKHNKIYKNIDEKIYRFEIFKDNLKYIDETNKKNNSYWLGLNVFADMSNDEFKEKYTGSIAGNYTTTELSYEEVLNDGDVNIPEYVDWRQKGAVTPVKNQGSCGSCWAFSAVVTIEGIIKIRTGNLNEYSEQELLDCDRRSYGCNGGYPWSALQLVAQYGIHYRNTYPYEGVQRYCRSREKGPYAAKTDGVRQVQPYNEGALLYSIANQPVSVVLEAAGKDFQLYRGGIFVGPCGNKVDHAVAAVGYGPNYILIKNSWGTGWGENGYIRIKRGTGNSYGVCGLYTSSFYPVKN

SMILES	Ki [1]	pseudo-first-order inhibition rate constant (Papain)
CN(N=O)c1ccc(O)cc1	0.009 min⁻¹	
CN(N=O)c1ccc(Cl)cc1		0.017 min⁻¹
CN(N=O)c1cccc(O)c1		0.036 min⁻¹
CN(N=O)c1ccccc1		0.057 min⁻¹
CN(N=O)c1ccccc1O		0.011 min⁻¹
CN(C)c1ccc(N(C)N=O)cc1	0.243 min⁻¹	
CN(N=O)c1ccccc1[N+](=O)[O-]		0.026 min⁻¹
CN(N=O)c1cc(O)ccc1O [DEPHOSTATIN]	0.328 min⁻¹	
